Reference: ChEMBL document CHEMBL2413072, “Synthesis and in vitro anticancer studies of novel C-2 arylidene congeners of lantadenes” (2013)

How the values were obtained:
Type in all cases: functional
SK-MEL-2 = assay: Growth inhibition of human SK-MEL-2 cells assessed as cell growth at 10^-8 M by sulforhodamine B assay; settings: read-out: Activity
MDA-MB-468 [1] = assay: Growth inhibition of human MDA-MB-468 cells assessed as cell growth at 10^-4 M by sulforhodamine B assay; settings: read-out: Activity
RXF 393 = assay: Growth inhibition of human RXF393 cells by sulforhodamine B assay
OVCAR-4 = assay: Growth inhibition of human OVCAR4 cells assessed as cell growth at 10^-4 M by sulforhodamine B assay; settings: read-out: Activity
SN12C [2] = assay: Growth inhibition of human SN12C cells assessed as cell growth at 10^-6 M by sulforhodamine B assay; settings: read-out: Activity
Malme-3M = assay: Growth inhibition of human MALME-3M cells assessed as cell growth at 10^-7 M by sulforhodamine B assay; settings: read-out: Activity
HCT-116 [3] = assay: Growth inhibition of human HCT116 cells assessed as cell growth at 10^-4 M by sulforhodamine B assay; settings: read-out: Activity
SK-MEL-28 = assay: Growth inhibition of human SK-MEL-28 cells by sulforhodamine B assay
MDA-MB-231 [4] = assay: Growth inhibition of human MDA-MB-231 cells by sulforhodamine B assay
[5] = Growth inhibition of human Hs 578T cells assessed as cell growth at 10^-7 M by sulforhodamine B assay; settings: read-out: Activity
786-0 [6] = assay: Growth inhibition of human 786-0 cells assessed as cell growth at 10^-8 M by sulforhodamine B assay; settings: read-out: Activity
CAKI-1 = assay: Growth inhibition of human CAKI-1 cells assessed as cell growth at 10^-7 M by sulforhodamine B assay; settings: read-out: Activity
786-0 [7] = assay: Growth inhibition of human 786-0 cells by sulforhodamine B assay
NCI-H522 = assay: Growth inhibition of human NCI-H522 cells assessed as cell growth at 10^-7 M by sulforhodamine B assay; settings: read-out: Activity
TK-10 [8] = assay: Growth inhibition of human TK10 cells assessed as cell growth at 10^-7 M by sulforhodamine B assay; settings: read-out: Activity
SN12C [9] = assay: Growth inhibition of human SN12C cells assessed as cell growth at 10^-7 M by sulforhodamine B assay; settings: read-out: Activity
NCI-H460 = assay: Growth inhibition of human NCI-H460 cells by sulforhodamine B assay
SN12C [10] = assay: Growth inhibition of human SN12C cells assessed as cell growth at 10^-8 M by sulforhodamine B assay; settings: read-out: Activity
[11] = Growth inhibition of human NCI-ADR-RES cells assessed as cell growth at 10^-4 M by sulforhodamine B assay; settings: read-out: Activity
HOP-92 = assay: Growth inhibition of human HOP92 cells assessed as cell growth at 10^-6 M by sulforhodamine B assay; settings: read-out: Activity
UACC-62 = assay: Growth inhibition of human UACC62 cells assessed as cell growth at 10^-7 M by sulforhodamine B assay; settings: read-out: Activity
HCT-116 [12] = assay: Growth inhibition of human HCT116 cells assessed as cell growth at 10^-6 M by sulforhodamine B assay; settings: read-out: Activity
M14 = assay: Growth inhibition of human M14 cells by sulforhodamine B assay
HL-60(TB) = assay: Growth inhibition of human HL-60(TB) cells assessed as cell growth at 10^-4 M by sulforhodamine B assay; settings: read-out: Activity
OVCAR-3 = assay: Growth inhibition of human OVCAR3 cells assessed as cell growth at 10^-8 M by sulforhodamine B assay; settings: read-out: Activity
MDA-MB-231 [13] = assay: Growth inhibition of human MDA-MB-231 cells assessed as cell growth at 10^-6 M by sulforhodamine B assay; settings: read-out: Activity
CCRF-CEM [14] = assay: Growth inhibition of human CCRF-CEM cells assessed as cell growth at 10^-7 M by sulforhodamine B assay; settings: read-out: Activity
[15] = Growth inhibition of human NCI-ADR-RES cells assessed as cell growth at 10^-7 M by sulforhodamine B assay; settings: read-out: Activity
NCI-H23 = assay: Growth inhibition of human NCI-H23 cells assessed as cell growth at 10^-4 M by sulforhodamine B assay; settings: read-out: Activity
MDA-MB-231 [16] = assay: Growth inhibition of human MDA-MB-231 cells assessed as cell growth at 10^-7 M by sulforhodamine B assay; settings: read-out: Activity
MDA-MB-435 = assay: Growth inhibition of human MDA-MB-435 cells assessed as cell growth at 10^-8 M by sulforhodamine B assay; settings: read-out: Activity
K562 [17] = assay: Growth inhibition of human K562 cells assessed as cell growth at 10^-6 M by sulforhodamine B assay; settings: read-out: Activity
COLO 205 = assay: Growth inhibition of human COLO205 cells assessed as cell growth at 10^-8 M by sulforhodamine B assay; settings: read-out: Activity
IGROV-1 [18] = assay: Growth inhibition of human IGROV1 cells assessed as cell growth at 10^-6 M by sulforhodamine B assay; settings: read-out: Activity
NCI-H226 = assay: Growth inhibition of human NCI-H226 cells assessed as cell growth at 10^-8 M by sulforhodamine B assay; settings: read-out: Activity
TK-10 [19] = assay: Growth inhibition of human TK10 cells assessed as cell growth at 10^-6 M by sulforhodamine B assay; settings: read-out: Activity
CCRF-CEM [20] = assay: Growth inhibition of human CCRF-CEM cells assessed as cell growth at 10^-6 M by sulforhodamine B assay; settings: read-out: Activity
K562 [21] = assay: Growth inhibition of human K562 cells assessed as cell growth at 10^-8 M by sulforhodamine B assay; settings: read-out: Activity
RPMI-8226 = assay: Growth inhibition of human RPMI8226 cells assessed as cell growth at 10^-4 M by sulforhodamine B assay; settings: read-out: Activity
IGROV-1 [22] = assay: Growth inhibition of human IGROV1 cells assessed as cell growth at 10^-8 M by sulforhodamine B assay; settings: read-out: Activity
MDA-MB-468 [23] = assay: Growth inhibition of human MDA-MB-468 cells by sulforhodamine B assay
[24] = read-out: LC50 (the source's name)
[25] = read-out: pLC50 (the source's name) (converted)

For CC(C)=CC(=O)O[C@@H]1CC(C)(C)C[C@H]2C3=CC[C@@H]4[C@@]5(C)CC[C@H](O)C(C)(C)[C@@H]5CC[C@@]4(C)[C@]3(C)CC[C@@]12C(=O)O [Reduced Lantadene B], the growth at 0.01 µM (SK-MEL-2) was 97%, the growth at 100 µM (MDA-MB-468 [1]) was -77% and the GI50 (RXF 393; read-out: GI50) was 2.58 µM. It also gave a CC50 (RXF 393; [24]) of 35.6 µM, a TGI (RXF 393; read-out: TGI) of 7.69 µM and a GI50 (RXF 393; read-out: pGI50 (converted)) of 2.57 µM. The CC50 (RXF 393; [25]) was 35.5 µM, the TGI (RXF 393; read-out: pTGI (converted)) was 7.76 µM and the growth at 100 µM (OVCAR-4) was -39%. For the same compound, the growth at 1 µM (SN12C [2]) was 89%, the growth at 0.1 µM (Malme-3M) was 94% and the growth at 100 µM (HCT-116 [3]) was -80%. The GI50 (SK-MEL-28; read-out: GI50) was 4.89 µM, the CC50 (SK-MEL-28; [24]) was 70.1 µM and the TGI (SK-MEL-28; read-out: TGI) was 20.4 µM. For the same compound, the GI50 (SK-MEL-28; read-out: pGI50 (converted)) was 4.9 µM, the CC50 (SK-MEL-28; [25]) was 70.8 µM and the TGI (SK-MEL-28; read-out: pTGI (converted)) was 20.4 µM. It also gave a GI50 (MDA-MB-231 [4]; read-out: GI50) of 4.56 µM, a CC50 (MDA-MB-231 [4]; [24]) of 54.7 µM and a TGI (MDA-MB-231 [4]; read-out: TGI) of 19.4 µM. It also gave a GI50 (MDA-MB-231 [4]; read-out: pGI50 (converted)) of 4.57 µM, a CC50 (MDA-MB-231 [4]; [25]) of 55 µM and a TGI (MDA-MB-231 [4]; read-out: pTGI (converted)) of 19.5 µM. For the same compound, the growth at 0.1 µM [5] was 97%, the growth at 0.01 µM (786-0 [6]) was 97% and the growth at 0.1 µM (CAKI-1) was 98%. The GI50 (786-0 [7]; read-out: GI50) was 3.06 µM, the CC50 (786-0 [7]; [24]) was 50.7 µM and the TGI (786-0 [7]; read-out: TGI) was 11.5 µM. The GI50 (786-0 [7]; read-out: pGI50 (converted)) was 3.09 µM, the CC50 (786-0 [7]; [25]) was 51.3 µM and the TGI (786-0 [7]; read-out: pTGI (converted)) was 11.5 µM. It also gave a growth at 0.1 µM (NCI-H522) of 102%, a growth at 0.1 µM (TK-10 [8]) of 93% and a growth at 0.1 µM (SN12C [9]) of 96%. For the same compound, the GI50 (NCI-H460; read-out: GI50) was 3.07 µM, the LC50 (NCI-H460; read-out: LC50) was greater than 100 µM and the TGI (NCI-H460; read-out: TGI) was 66.8 µM. It also gave a GI50 (NCI-H460; read-out: pGI50 (converted)) of 3.09 µM, an LC50 (NCI-H460; read-out: pLC50 (converted)) greater than 100 µM and a TGI (NCI-H460; read-out: pTGI (converted)) of 66.1 µM. It also gave a growth at 0.01 µM (SN12C [10]) of 101%, a growth at 100 µM [11] of -30% and a growth at 1 µM (HOP-92) of 70%. The growth at 0.1 µM (UACC-62) was 90%, the growth at 1 µM (HCT-116 [12]) was 72% and the GI50 (M14; read-out: GI50) was 7.71 µM. For the same compound, the CC50 (M14; [24]) was 67.8 µM, the TGI (M14; read-out: TGI) was 24.8 µM and the GI50 (M14; read-out: pGI50 (converted)) was 7.76 µM. For the same compound, the CC50 (M14; [25]) was 67.6 µM, the TGI (M14; read-out: pTGI (converted)) was 24.5 µM and the growth at 100 µM (HL-60(TB)) was -52%. For the same compound, the growth at 0.01 µM (OVCAR-3) was 104%, the growth at 1 µM (MDA-MB-231 [13]) was 85% and the growth at 0.1 µM (CCRF-CEM [14]) was 102%. It also gave a growth at 0.1 µM [15] of 99%, a growth at 100 µM (NCI-H23) of -58% and a growth at 0.1 µM (MDA-MB-231 [16]) of 97%. It also gave a growth at 0.01 µM (MDA-MB-435) of 100%, a growth at 1 µM (K562 [17]) of 69% and a growth at 0.01 µM (COLO 205) of 107%. For the same compound, the growth at 1 µM (IGROV-1 [18]) was 101%, the growth at 0.01 µM (NCI-H226) was 96% and the growth at 1 µM (TK-10 [19]) was 86%. For the same compound, the growth at 1 µM (CCRF-CEM [20]) was 75%, the growth at 0.01 µM (K562 [21]) was 114% and the growth at 100 µM (RPMI-8226) was -19%. It also gave a growth at 0.01 µM (IGROV-1 [22]) of 104%, a GI50 (MDA-MB-468 [23]; read-out: GI50) of 4.17 µM and a CC50 (MDA-MB-468 [23]; [24]) of 57.1 µM. It also gave a TGI (MDA-MB-468 [23]; read-out: TGI) of 20.2 µM, a GI50 (MDA-MB-468 [23]; read-out: pGI50 (converted)) of 4.17 µM and a CC50 (MDA-MB-468 [23]; [25]) of 57.5 µM. The TGI (MDA-MB-468 [23]; read-out: pTGI (converted)) was 20 µM.
